Columns and labels:
[1] = Drug metabolism in PBMC (unknown origin) assessed as half life for active triphosphate formation; assay type: ADME, cell-based
[2] = Half life in rhesus monkey at 10 mg/kg, iv; assay type: ADME, organism-based, Macaca mulatta; details: in vivo
Ebolavirus [3] = test: Antiviral activity against Ebolavirus infected in rhesus monkey assessed as protection against viral disease administered intravenously as once daily regimen; assay type: functional
Ebolavirus [4] = test: Antiviral activity against Ebolavirus assessed as reduction in viral replication; assay type: functional; details: Orthoebolavirus
Ebolavirus [5] = test: Antiviral activity against Ebolavirus infected in PBMC (unknown origin) assessed as reduction in viral replication after 24 hrs; assay type: functional
[6] = Tmax in human at 0.025 to 2 mg/kg dosed as single and multiple doses; assay type: ADME, organism-based; details: in vivo
[7] = Half life in human at 1.5 mg/kg dosed as single and multiple doses; assay type: ADME, organism-based; details: in vivo
[8] = Half life in human at 0.025 mg/kg dosed as single and multiple doses; assay type: ADME, organism-based; details: in vivo
[9] = Toxicity in patients with solid malignancies assessed as incidence of transaminitis; details: human, in vivo
[10] = Toxicity in patients with solid malignancies assessed as incidence of fatigue; details: human, in vivo
[11] = Toxicity in patients with solid malignancies assessed as incidence of thrombocytopenia; details: human, in vivo
[12] = Toxicity in patients with solid malignancies assessed as incidence of anemia; details: human, in vivo
Mus musculus = species on record: Mus musculus; test: Toxicity in mouse assessed as body weight loss; assay type: organism-based; details: in vivo

## CCC(CC)OC(=O)[C@H](C)N[P@@](=O)(OC[C@H]1O[C@@](C#N)(c2ccc3c(N)ncnn23)[C@H](O)[C@@H]1O)Oc1ccccc1
[1]
  t1/2: 14 h
[2]
  half-life: 23.4 min
Ebolavirus [3]
  Activity: 100%
Ebolavirus [4]
  EC50: 60 to 140 nM
Ebolavirus [5]
  inhibition (INH): >50%

## CCCCCCCCCCCCCCCCOCCCOP(=O)(O)CO[C@H](CO)Cn1ccc(N)nc1=O [BRINCIDOFOVIR]
[6]
  Tmax: 7 to 15 h
[7]
  half-life: 1960 min
[8]
  half-life: 369 min

## C[C@H](NP(=O)(OC[C@H]1O[C@@H](n2ccc(N)nc2=O)C(F)(F)[C@@H]1O)Oc1ccccc1)C(=O)OCc1ccccc1 (some centres undefined) [FOSGEMCITABINE PALABENAMIDE]
[9]
  Activity: 64%
[10]
  Activity: 67%
[11]
  Activity: 53%
[12]
  Activity: 67%
Mus musculus
  Activity: < 2%

## N#C[C@@]1(c2ccc3c(N)ncnn23)O[C@H](CO)[C@@H](O)[C@H]1O [GS-441524]
Ebolavirus [4]
  EC50: 770 to 20000 nM
